Where a name gives a salt, the structure may show the parent alone.
Target: T1, human muscarinic acetylcholine M3 receptor (Homo sapiens, UniProt P20309)
T1 construct: expressed in transfected cells; host or cells: CHO-K1 (Chinese Hamster Ovary) cell membranes
Experiment: biochemical
Format: binding
Settings: M3 binding IC50

T1 sequence (P20309 whole entry): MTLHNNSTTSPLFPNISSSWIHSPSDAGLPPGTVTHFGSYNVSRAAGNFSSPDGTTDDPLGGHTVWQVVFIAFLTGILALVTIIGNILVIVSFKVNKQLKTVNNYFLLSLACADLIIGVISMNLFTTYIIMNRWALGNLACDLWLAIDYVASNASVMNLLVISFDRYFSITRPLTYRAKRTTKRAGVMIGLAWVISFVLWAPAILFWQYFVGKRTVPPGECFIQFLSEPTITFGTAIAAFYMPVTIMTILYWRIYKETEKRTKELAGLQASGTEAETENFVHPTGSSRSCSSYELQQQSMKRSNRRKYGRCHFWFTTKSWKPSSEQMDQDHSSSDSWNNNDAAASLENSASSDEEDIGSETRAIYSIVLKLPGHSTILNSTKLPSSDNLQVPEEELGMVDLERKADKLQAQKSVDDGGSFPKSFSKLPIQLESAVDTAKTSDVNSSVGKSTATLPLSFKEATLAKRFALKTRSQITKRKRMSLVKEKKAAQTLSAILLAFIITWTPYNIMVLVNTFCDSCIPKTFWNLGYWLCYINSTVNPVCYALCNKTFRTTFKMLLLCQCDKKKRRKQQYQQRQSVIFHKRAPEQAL

| SMILES | IC50 [nM] |
| --- | --- |
| O=C(NCC[N+]12CCC(CC1)[C@@H](OC(=O)C1(c3ccccc3)CCCCCC1)C2)c1ccccn1 [Example 60, (R)-3-(1-Phenyl-cycloheptanecarbonyloxy)-1-{2-[(pyridine-2-carbonyl)-amino]-ethyl}-1-azonia-bicyclo[2.2.2]octane bromide] | < 2 |
| Cc1cc(NC(=O)C[N+]23CCC(CC2)[C@@H](OC(=O)C2(c4cccs4)CCCCCC2)C3)no1 [Example 6, (R)-1-[(5-Methyl-isoxazol-3-ylcarbamoyl)-methyl]-3-(1-thiophen-2-yl-cycloheptanecarbonyloxy)-1-azonia-bicyclo[2.2.2]octane bromide] | < 2 |
| O=C(C[N+]12CCC(CC1)[C@@H](OC(=O)C1(c3ccccc3)CCCCCC1)C2)Nc1ccc(Cl)cn1 [Example 45, (R)-1-[(5-Chloro-pyridin-2-ylcarbamoyl)-methyl]-3-(1-phenyl-cycloheptanecarbonyloxy)-1-azonia-bicyclo[2.2.2]octane chloride] | < 2 |
| O=C(C[N+]12CCC(CC1)[C@@H](OC(=O)C1(c3ccccc3)CCCCCC1)C2)Nc1noc2ccccc12 [Example 4, (R)-1-(Benzo[d]isoxazol-3-ylcarbamoylmethyl)-3-(1-phenyl-cycloheptanecarbonyloxy)-1-azonia-bicyclo[2.2.2]octane chloride] | < 2 |
| Cc1cnc(NC(=O)C[N+]23CCC(CC2)[C@@H](OC(=O)C2(c4cccs4)CCCCCC2)C3)cn1 [Example 9, (R)-1-[(5-Methyl-pyrazin-2-ylcarbamoyl)-methyl]-3-(1-thiophen-2-yl-cycloheptanecarbonyloxy)-1-azonia-bicyclo[2.2.2]octane bromide] | < 2 |
| Cc1cc(NC(=O)C[N+]23CCC(CC2)[C@@H](OC(=O)C2(c4cccs4)CCCCCC2)C3)on1 [Example 7, (R)-1-[(3-Methyl-isoxazol-5-ylcarbamoyl)-methyl]-3-(1-thiophen-2-yl-cycloheptanecarbonyloxy)-1-azonia-bicyclo[2.2.2]octane bromide] | 2 to 10 |
| Cc1ccnc(NC(=O)C[N+]23CCC(CC2)[C@@H](OC(=O)C2(c4ccccc4)CCCCCC2)C3)c1 [Example 44, (R)-1-[(4-Methyl-pyridin-2-ylcarbamoyl)-methyl]-3-(1-phenyl-cycloheptanecarbonyloxy)-1-azonia-bicyclo[2.2.2]octane chloride] | 2 to 10 |
| Cc1cccc(NC(=O)C[N+]23CCC(CC2)[C@@H](OC(=O)C2(c4ccccc4)CCCCCC2)C3)c1 [Example 47, (R)-3-(1-Phenyl-cycloheptanecarbonyloxy)-1-(m-tolylcarbamoyl-methyl)-1-azonia-bicyclo[2.2.2]octane bromide] | 2 to 10 |
| O=C(C[N+]12CCC(CC1)[C@@H](OC(=O)C1(c3ccccc3)CCCCCC1)C2)Nc1cccc(F)c1F [Example 24, (R)-1-[(2,3-Difluoro-phenylcarbamoyl)-methyl]-3-(1-phenyl-cycloheptanecarbonyloxy)-1-azonia-bicyclo[2.2.2]octane bromide] | < 2 |
| O=C(C[N+]12CCC(CC1)[C@@H](OC(=O)C1(c3ccccc3)CCCCCC1)C2)Nc1cc(F)ccc1F [Example 41, (R)-1-[(2,5-Difluoro-phenylcarbamoyl)-methyl]-3-(1-phenyl-cycloheptanecarbonyloxy)-1-azonia-bicyclo[2.2.2]octane bromide] | 2 to 10 |
| O=C(C[N+]12CCC(CC1)[C@@H](OC(=O)C1(c3ccccc3)CCCCCC1)C2)Nc1cccc(C(F)(F)F)n1 [Example 43, (R)-3-(1-Phenyl-cycloheptanecarbonyloxy)-1-[(6-trifluoromethyl-pyridin-2-ylcarbamoyl)-methyl]-1-azonia-bicyclo[2.2.2]octane chloride] | 2 to 10 |
| O=C(C[N+]12CCC(CC1)[C@@H](OC(=O)C1(c3ccccc3)CCCCCC1)C2)Nc1ccncn1 [Example 22, (R)-3-(1-Phenyl-cycloheptanecarbonyloxy)-1-(pyrimidin-4-ylcarbamoylmethyl)-1-azonia-bicyclo[2.2.2]octane chloride] | < 2 |
| O=C(C[N+]12CCC(CC1)[C@@H](OC(=O)C1(c3ccccc3)CCCCCC1)C2)Nc1ccnnc1 [Example 27, (R)-3-(1-phenyl-cycloheptanecarbonyloxy)-1-(pyridazin-4-ylcarbamoylmethyl)-1-azonia-bicyclo[2.2.2]octane formate] | 2 to 10 |
| N#Cc1ccc(OCCC[N+]23CCC(CC2)[C@@H](OC(=O)C2(c4ccccc4)CCCCCC2)C3)cc1 [Example 40, (R)-1-[3-(4-Cyano-phenoxy)-propyl]-3-(1-phenyl-cycloheptanecarbonyloxy)-1-azonia-bicyclo[2.2.2]octane bromide] | < 2 |
| O=C(O[C@H]1C[N+]2(CCOc3ccc(F)cc3)CCC1CC2)C1(c2ccccc2)CCCCCC1 [Example 26, (R)-1-[2-(4-Fluoro-phenoxy)-ethyl]-3-(1-phenyl-cycloheptanecarbonyloxy)-1-azonia-bicyclo[2.2.2]octane formate] | < 2 |
| O=C(O[C@H]1C[N+]2(CCCc3ccncc3)CCC1CC2)C1(c2ccccc2)CCCCCC1 [Example 61, (R)-3-(1-Phenyl-cycloheptanecarbonyloxy)-1-(3-pyridin-4-yl-propyl)-1-azonia-bicyclo[2.2.2]octane bromide] | < 2 |

| SMILES | IC50 [nM] |
| --- | --- |
| O=C(NCCC[N+]12CCC(CC1)[C@@H](OC(=O)C1(c3ccccc3)CCCCCC1)C2)c1ccccn1 [Example 57, (R)-3-(1-Phenyl-cycloheptanecarbonyloxy)-1-{3-[(pyridine-2-carbonyl)-amino]-propyl}-1-azonia-bicyclo[2.2.2]octane bromide] | 2 to 10 |
| O=C(C[N+]12CCC(CC1)[C@@H](OC(=O)C1(c3ccccc3)CCCCCC1)C2)Nc1ncco1 [Example 48, (R)-1-(Oxazol-2-ylcarbamoylmethyl)-3-(1-phenyl-cycloheptanecarbonyloxy)-1-azonia-bicyclo[2.2.2]octane bromide] | 2 to 10 |
| N#Cc1ccc(NC(=O)C[N+]23CCC(CC2)[C@@H](OC(=O)C2(c4ccccc4)CCCCCC2)C3)nc1 [Example 51, (R)-1-[(5-Cyano-pyridin-2-ylcarbamoyl)-methyl]-3-(1-phenyl-cycloheptanecarbonyloxy)-1-azonia-bicyclo[2.2.2]octane chloride] | 2 to 10 |
| O=C(C[N+]12CCC(CC1)[C@@H](OC(=O)C1(c3ccccc3)CCCCCC1)C2)Nc1cncnc1 [Example 52, (R)-3-(1-Phenyl-cycloheptanecarbonyloxy)-1-(pyrimidin-5-ylcarbamoylmethyl)-1-azonia-bicyclo[2.2.2]octane chloride] | < 2 |
| O=C(C[N+]12CCC(CC1)[C@@H](OC(=O)C1(c3ccccc3)CCCCCC1)C2)Nc1ccncc1 [Example 16, (R)-3-(1-Phenyl-cycloheptanecarbonyloxy)-1-(pyridin-4-ylcarbamoylmethyl)-1-azonia-bicyclo[2.2.2]octane chloride] | < 2 |
| O=C(C[N+]12CCC(CC1)[C@@H](OC(=O)C1(c3ccccc3)CCCCCC1)C2)Nc1c(F)cccc1F [Example 38, (R)-1-[(2,6-Difluoro-phenylcarbamoyl)-methyl]-3-(1-phenyl-cycloheptanecarbonyloxy)-1-azonia-bicyclo[2.2.2]octane bromide] | < 2 |
| O=C(C[N+]12CCC(CC1)[C@@H](OC(=O)C1(c3ccccc3)CCCCCC1)C2)Nc1ccncc1F [Example 54, (R)-1-[(3-Fluoro-pyridin-4-ylcarbamoyl)-methyl]-3-(1-phenyl-cycloheptanecarbonyloxy)-1-azonia-bicyclo[2.2.2]octane chloride] | < 2 |
| Cc1cncc(NC(=O)C[N+]23CCC(CC2)[C@@H](OC(=O)C2(c4ccccc4)CCCCCC2)C3)n1 [Example 2, (R)-1-[(6-Methyl-pyrazin-2-ylcarbamoyl)-methyl]-3-(1-phenyl-cycloheptanecarbonyloxy)-1-azonia-bicyclo[2.2.2]octane bromide] | < 2 |
| Cc1ccc(NC(=O)C[N+]23CCC(CC2)[C@@H](OC(=O)C2(c4ccccc4)CCCCCC2)C3)nn1 [Example 49, (R)-1-[(6-Methyl-pyridazin-3-ylcarbamoyl)-methyl]-3-(1-phenyl-cycloheptanecarbonyloxy)-1-azonia-bicyclo[2.2.2]octane bromide] | < 2 |
| N#Cc1ccc(COCC[N+]23CCC(CC2)[C@@H](OC(=O)C2(c4ccccc4)CCCCCC2)C3)cc1 [Example 42, (R)-1-[2-(4-Cyano-benzyloxy)-ethyl]-3-(1-phenyl-cycloheptanecarbonyloxy)-1-azonia-bicyclo[2.2.2]octane bromide] | 2 to 10 |
| Cc1ccc(NC(=O)C[N+]23CCC(CC2)[C@@H](OC(=O)C2(c4ccccc4)CCCCCC2)C3)cc1 [Example 46, (R)-3-(1-Phenyl-cycloheptanecarbonyloxy)-1-(p-tolylcarbamoyl-methyl)-1-azonia-bicyclo[2.2.2]octane bromide] | 2 to 10 |
| O=C(C[N+]12CCC(CC1)[C@@H](OC(=O)C1(c3ccccc3)CCCCCC1)C2)Nc1ccccc1F [Example 23, (R)-1-[(2-Fluoro-phenylcarbamoyl)-methyl]-3-(1-phenyl-cycloheptanecarbonyloxy)-1-azonia-bicyclo[2.2.2]octane bromide] | < 2 |
| O=C(O[C@H]1C[N+]2(CCc3ccc4c(c3)CCO4)CCC1CC2)C1(c2ccccc2)CCCCCC1 [Example 25, (R)-1-[2-(2,3-Dihydro-benzofuran-5-yl)-ethyl]-3-(1-phenyl-cycloheptanecarbonyloxy)-1-azonia-bicyclo[2.2.2]octane formate] | < 2 |
| O=C(NCC[N+]12CCC(CC1)[C@@H](OC(=O)C1(c3ccccc3)CCCCCC1)C2)c1cnccn1 [Example 55, (R)-3-(1-Phenyl-cycloheptanecarbonyloxy)-1-{2-[(pyrazine-2-carbonyl)-amino]-ethyl}-1-azonia-bicyclo[2.2.2]octane bromide] | 2 to 10 |
| O=C(C[N+]12CCC(CC1)[C@@H](OC(=O)C1(c3ccccc3)CCCCCC1)C2)Nc1ncccn1 [Example 50, (R)-3-(1-Phenyl-cycloheptanecarbonyloxy)-1-(pyrimidin-2-ylcarbamoylmethyl)-1-azonia-bicyclo[2.2.2]octane chloride] | < 2 |
